Test [1] relates to H1299 (non-small cell lung carcinoma). Description: In vitro antiproliferation assay, H1299 cells (TABLE 1 6 point assay; TABLE 2). It is filed as cell-based. Here is the method: (§1) Certain compounds were tested against other cell types for their ability to inhibit proliferation in standard antiproliferation assays.
The subject of another test is A549 (lung carcinoma). Description: In vitro antiproliferation assay, A549 cells (TABLE 1 6 point assay; TABLE 2). It is filed as cell-based. Here is the method:
as §1

[2] abbreviates: Homo sapiens, NCI-H1299, 6 point assay, H1299 cells, read-out: IC50, H1299 cells.
Where [3] appears, read: Homo sapiens, A549, 6 point assay, A549 cells, read-out: IC50, A549 cells.
[4] abbreviates: 6 point assay, H1299 cells, read-out: IC50, H1299 cells.
Setting [5] is: 6 point assay, A549 cells, read-out: IC50, A549 cells.
[6] abbreviates: Homo sapiens, NCI-H1299, H1299 cells, 6 point assay, read-out: H1299, 6pt (IC50, inhibition of proliferation).
Where [7] appears, read: Homo sapiens, A549, A549 cells, 6 point assay, read-out: A549, 6pt (IC50, inhibition of proliferation).

Structures can show the parent of a compound that is named as a salt. Where two headings read alike, the source gives them in different places.

With `CC(=O)N1CCN(c2cccc(Nc3ncc(F)c(NC4CCCC4C(N)=O)n3)c2)CC1` (stereo not shown) [compound 197, N2-[3-(4-Acetylpiperazino)phenyl]-N4-(2-carboxamidocyclopentyl)-5-fluoro-2,4-pyrimidinediamine], the results for the IC50 (in test [1] (setting [2]); in the test on A549 (lung carcinoma) (setting [3])) were 0.1 to 1 µM and 1 to 10 µM, respectively.

With `CNC(=O)c1cc(Nc2ncc(F)c(NC3C4C=CC(C4)C3C(N)=O)n2)ccc1N1CCN(C)CC1` (racemic) [compound 255, Racemic-(2-exo,3-exo)-N4-(3-aminocarbonylbicyclo[2.2.1]hept-5-en-2-yl)-5-fluoro-N2-[3-methylaminocarbonyl-4-(4-methylpiperazin-1-yl)phenyl]-2,4-pyrimidinediamine], the IC50 (in test [1] (setting [2]); in the test with A549 (lung carcinoma) (setting [3])) was 0.1 to 1 µM in each case.

For `Cc1cc(Nc2ncc(F)c(NC3C4C=CC(C4)C3C(N)=O)n2)ccc1N1CC(C)OC(C)C1` (racemic) [Compound 284, Racemic-(2-exo,3-exo)-N4-(3-aminocarbonylbicyclo[2.2.1]hept-5-en-2-yl)-N2-[4-(2,6-dimethylmorpholino)-3-methylphenyl]-5-fluoro-2,4-pyrimidinediamine], the IC50 (in test [1] (setting [2]); in the test on A549 (lung carcinoma) (setting [3])) was no more than 0.1 µM throughout.

On to `CN1CCN(c2ccc(Nc3ncc(F)c(NC4C5C=CC(C5)C4C(N)=O)n3)cc2C#N)CC1` (racemic) [compound 243, Racemic-(2-exo,3-exo)-N4-(3-aminocarbonylbicyclo[2.2.1]hept-5-en-2-yl)-N2-[3-cyano-4-(4-methylpiperazin-1-yl)phenyl]-5-fluoro-2,4-pyrimidinediamine], for which the IC50 (in test [1] (setting [2]); with A549 (lung carcinoma) (setting [3])) was no more than 0.1 µM throughout.

For `CN1CCN(c2ccc(Nc3ncc(F)c(NC4CCCC4C(N)=O)n3)cc2)CC1` (stereo not shown) [compound 203, N4-(2-Carboxamidocyclopentyl)-5-fluoro-N2-[4-(4-methylpiperazino)phenyl]-2,4-pyrimidinediamine Monohydrochloride Salt], the IC50 (in test [1] (setting [4]); with A549 (lung carcinoma) (setting [5])) was 0.1 to 1 µM throughout.

On to `COCc1cc(Nc2ncc(F)c(N[C@H]3CCC[C@H]3C(N)=O)n2)ccc1N1CCN(C)CC1` (racemic) [compound 216, Racemic-cis-N4-(2-aminocarbonylcyclopent-1-yl)-5-fluoro-N2-[4-(4-methylpiperazin-1-yl)-3-methoxymethylenephenyl]-2,4-pyrimidinediamine], for which the IC50 (in test [1] (setting [2]); in the test on A549 (lung carcinoma) (setting [3])) was 0.1 to 1 µM each time.

Turning to `CN1CCN(CCn2ccc3cc(Nc4ncc(F)c(NC5C6C=CC(C6)C5C(N)=O)n4)ccc32)CC1` (racemic) [compound 134, Racemic-(2-exo,3-exo)-N4-(3-aminocarbonylbicyclo[2.2.1]hept-5-en-2-yl)-5-fluoro-N2-{1-[2-(4-methylpiperazin-1-yl)ethyl]indol-5-yl}-2,4-pyrimidinediamine], the IC50 (in test [1] (setting [6]); in the test on A549 (lung carcinoma) (setting [7])) was 0.1 to 1 µM throughout.

On to `COc1cc(Nc2ncc(F)c(N[C@@H]3[C@H](C(N)=O)[C@H]4C=C[C@@H]3C4)n2)ccc1N1C(=O)CN(C)CC1=O` (racemic) [compound 266, Racemic-(2-exo,3-exo)-N4-(3-aminocarbonylbicyclo[2.2.1]hept-5-en-2-yl)-5-fluoro-N2-[3-methoxy-4-(4-methyl-2,6-dioxopiperazino)phenyl]-2,4-pyrimidinediamine], for which the IC50 (in test [1] (setting [2]); with A549 (lung carcinoma) (setting [3])) was 0.1 to 1 µM in each case.

For `CNC(=O)C1C2C=CC(C2)C1Nc1nc(Nc2ccc3c(c2)CCN3CCN(C)C)ncc1F` (racemic) [compound 177, Racemic-(2-exo,3-exo)-N2-[1-(2-dimethylaminoethyl)-2,3-dihydroindol-5-yl]-5-fluoro-N4-[3-N-methylaminocarbonylbicyclo[2.2.1]hept-5-ene-2-yl]-2,4-pyrimidinediamine], the IC50 in test [1] (setting [6]) is 0.1 to 1 µM; in the test on A549 (lung carcinoma) (setting [7]) it was no more than 0.1 µM.

With `Cc1ccc(Nc2ncc(F)c(NC3CCCC3C(N)=O)n2)cc1` (stereo not drawn) [compound 212, (cis)-N4-(2-Carboxamidocyclopent-1-yl)-5-fluoro-N2-(4-methylphenyl)-2,4-pyrimidinediamine], the IC50 (in test [1] (setting [2]); in the test with A549 (lung carcinoma) (setting [3])) was 1 to 10 µM in each case.

In the case of `Cc1cc(Nc2ncc(F)c(N[C@H]3[C@@H](C(=O)NC(C)c4ccccc4)[C@@H]4C=C[C@H]3C4)n2)ccc1N1CCN(C)CC1` (stereo partly drawn) [compound 109, (1R,2R,3S,4S)-N4-5-Fluoro-N4-(3-(R)-alpha-methylbenzylaminocarbonylbicyclo[2.2.1]hept-5-en-2-yl)-N2-[3-methyl-4-(4-methylpiperazin-1-yl)phenyl]-2,4-pyrimidinediamine], the IC50 (in test [1] (setting [6]); with A549 (lung carcinoma) (setting [7])) was 0.1 to 1 µM throughout.

`CN1CCN(c2ccc(Nc3ncc(F)c(NC4CCCC4C(N)=O)n3)cc2C(F)(F)F)CC1` (stereo not drawn) [compound 204, (cis)-N4-(2-Carboxamidocyclopent-1-yl)-5-fluoro-N2-[4-(4-methylpiperazino)-3-trifluoromethylphenyl]-1,4-pyrimidinediamine]: the IC50 in test [1] (setting [2]) fell in the range of 1 to 10 µM; in the test on A549 (lung carcinoma) (setting [3]) it was 0.1 to 1 µM.

With `Cc1cc(Nc2ncc(F)c(NC3C4C=CC(C4)C3C(N)=O)n2)ccc1O` (racemic) [compound 277, Racemic-(2-exo,3-exo)-N4-(3-aminocarbonylbicyclo[2.2.1]hept-5-en-2-yl)-5-fluoro-N2-(4-hydroxy-3-methylphenyl)-2,4-pyrimidinediamine Bis- Hydrochloride Salt], the IC50 (in test [1] (setting [4]); in the test on A549 (lung carcinoma) (setting [5])) was no more than 0.1 µM in each case.

Consider `CN1CCN(c2ccc(Nc3ncc(F)c(N[C@H]4CCC[C@H]4C(N)=O)n3)cc2CO)CC1` (racemic) [compound 217, Racemic-cis-N4-(2-aminocarbonylcyclopent-1-yl)-5-fluoro-N2-[3-hydroxymethylene-4-(4-methylpiperazin-1-yl)phenyl]-2,4-pyrimidinediamine], for which the IC50 lay within 1 to 10 µM in test [1] (setting [2]) and 0.1 to 1 µM with A549 (lung carcinoma) (setting [3]).

With `CN(C)CCN1CCc2cc(Nc3ncc(F)c(NC4C5C=CC(C5)C4C(N)=O)n3)ccc21` (racemic) [compound 171, Racemic-(2-exo, 3-exo)-N4-(3-aminocarbonylbicyclo[2.2.1]hept-5-en-2-yl)-5-fluoro-N2-[N-(2-dimethylaminoethyl)-2,3-dihydro-indol-5-yl]-2,4-pyrimidinediamine Bis Hydrogen Chloride Salt], the IC50 (in test [1] (setting [6]); in the test with A549 (lung carcinoma) (setting [7])) was 0.1 to 1 µM in each case.

Regarding `CN(C)CCN1CCOc2cc(Nc3ncc(F)c(N[C@H]4[C@@H](C(N)=O)[C@@H]5C=C[C@H]4C5)n3)ccc21` [compound 189, (1R,2R,3S,4S)-N4-(3-Aminocarbonylbicyclo[2.2.1]hept-5-en-2-yl)-5-fluoro-N2-(1-[2-(dimethylamino)ethyl]-3,4-dihydro-4H-benz[1,4]oxazin-6-yl}-2,4-pyrimidinediamine], the IC50 (in test [1] (setting [6]); in the test with A549 (lung carcinoma) (setting [7])) was no more than 0.1 µM in each case.

On to `Cc1ccc(Nc2ncc(F)c(NC3C4C=CC(C4)C3C(N)=O)n2)cc1OCCN1CCOCC1` (racemic) [compound 104, Racemic-(2-exo, 3-exo)-N4-(3-aminocarbonylbicyclo[2.2.1]hept-5-en-2-yl)-5-fluoro-N2-[4-methyl-3-(N-morpholinyl)-2-ethyleneoxyphenyl]-2,4-pyrimidinediamine], for which the IC50 (in test [1] (setting [6]); in the test on A549 (lung carcinoma) (setting [7])) was no more than 0.1 µM each time.

Turning to `COC(=O)CN1CCc2ccc(Nc3ncc(F)c(N[C@H]4CCC[C@H]4C(N)=O)n3)cc2C1` (racemic) [compound 132, Racemic-cis-N4-(2-aminocarbonylcyclopent-1-yl)-5-fluoro-N2-[2-(methoxycarbonylmethylene)-1,2,3,4-tetrahydroisoquin-7-yl]-2,4-pyrimidinediamine], the IC50 (in test [1] (setting [6]); with A549 (lung carcinoma) (setting [7])) was 0.1 to 1 µM each time.

Take `COC(=O)[C@H]1CC[C@@H](Nc2nc(Nc3ccc(N4CCN(C)CC4)c(C)c3)ncc2F)C1` [compound 214, (1R,3S)-N4-(3-Methoxycarbonylcyclopent-1-yl)-5-fluoro-N2-[3-methyl-4-(4-methylpiperazin-1-yl)phenyl]-2,4-pyrimidinediamine]: the IC50 (in test [1] (setting [2]); in the test with A549 (lung carcinoma) (setting [3])) was 1 to 10 µM in each case.

As for `Cc1cc(Nc2ncc(F)c(NC3C4C=CC(C4)C3C(N)=O)n2)ccc1N1CCN(C2CCCCC2)CC1` (racemic) [compound 245, Racemic-(2-exo,3-exo)-N4-(3-aminocarbonylbicyclo[2.2.1]hept-5-en-2-yl)-N2-[4-(4-cyclohexylpiperazin-1-yl)-3-methylphenyl]-5-fluoro-2,4-pyrimidinediamine], the IC50 (in test [1] (setting [2]); in the test with A549 (lung carcinoma) (setting [3])) was no more than 0.1 µM each time.

`COC(=O)[C@@H]1CCC[C@@H]1Nc1nc(Nc2ccc(N3CCN(C)CC3)c(C)c2)ncc1F` (racemic) [compound 218, Racemic-cis-5-fluoro-N2-[3-methyl-4-(4-methylpiperazin-1-yl)phenyl]-N4-(2-methoxycarbonylcyclopent-1-yl)-2,4-pyrimidinediamine]: the IC50 (in test [1] (setting [2]); in the test on A549 (lung carcinoma) (setting [3])) was 1 to 10 µM each time.

As for `CN1CCN(c2ccc(Nc3ncc(F)c(NC4CCCC4C(N)=O)n3)cc2C(F)(F)F)CC1` (stereo not drawn) [compound 207, (cis)-N4-(2-Carboxamidocyclopent-1-yl)-5-fluoro-N2-[4-(4-methylpiperazino)-3-trifluoromethylphenyl]-2,4-pyrimidinediamine Bis Hydrogen Chloride Salt], the IC50 in test [1] (setting [4]) fell in the range of 1 to 10 µM; in the test with A549 (lung carcinoma) (setting [5]), 0.1 to 1 µM.

Consider `CN1CCC(c2ccc(Nc3ncc(F)c(NC4C5C=CC(C5)C4C(N)=O)n3)cc2)CC1` (racemic) [compound 265, Racemic-(2-exo,3-exo)-N4-(3-aminocarbonylbicyclo[2.2.1]hept-5-en-2-yl)-5-fluoro-N2-[4-(1-methylpiperidin-4-yl)phenyl]-2,4-pyrimidinediamine], for which the IC50 (in test [1] (setting [2]); in the test with A549 (lung carcinoma) (setting [3])) was no more than 0.1 µM throughout.

(Values after patent US7868013B2, “Cycloalkyl substituted pyrimidinediamine compounds and their uses” (Rigel Pharmaceuticals, Inc., priority 2004, dated 2011).)
